Data from US9012441B2, “Therapeutic compounds” (Gilead Sciences, Inc., priority 2013, dated 2015).

How the values were obtained:
[1] = from C=CCc1c(CC(=O)N[C@@H](Cc2cc(F)cc(Br)c2)C(=O)OC)c2ccccc2n1C(=O)OC(C)(C)C; cc_pd bond; Pd(PPh3)4; acetonitrile; 4.3 mM; 82.0 °C; 6.0 h
HIV-IIIb = experiment: Test A: Antiviral Assay in MT4 Cells; format: cell-based, HIV-1; conditions: Human immunodeficiency virus 1, MT4, 120 h, read-out: % Inh @ 2 uM (percent inhibition of virus-induced cell killing); 2 uM test compound; MT-4 cells infected with HIV-IIIb, 5 days, CellTiter-Glo
Experimental: (§1) Test A: Antiviral Assay in MT4 Cells For the antiviral assay, 40 μL of 1× test concentration of 3-fold serially diluted compound in culture medium with 10% FBS was added to each well of a 384-well plate (10 concentrations) in quadruplicate. MT-4 cells were next mixed with HIV-IIIb at an m.o.i of 0.003 for 1 hour, after which time 35 μL of virus/cell mixture (2000 cells) was immediately added to each well containing 40 μL of diluted compound. The plates were then incubated at 37° C. for 5 days. After 5 days of incubation, 25 μl of 2× concentrated CellTiter-Glo™ Reagent (catalog #G7571, Promega Biosciences, Inc., Madison, Wis.) was added to each well containing MT-4 cells. Cell lysis was carried out by incubating at room temperature for 10 min and then chemiluminescence was read. […] Accordingly, the compounds disclosed herein may be useful for treating an HIV virus infection, treating AIDS or for delaying the onset of AIDS or ARC symptoms.

[2] = Test B: Cytotoxicity Assay (uninfected MT-4 cells); format: cell-based; conditions: human, same protocol as Test A, read-out: MT4-CC50
Experimental: as §1, with “For” for “Test A: Antiviral Assay in MT4 Cells For”, “Test B: Cytotoxicity Assay Compound cytotoxicity and” for “Accordingly,”, “corresponding CC50 values were determined using” for “compounds disclosed herein may be useful for treating an HIV virus infection, treating AIDS or for delaying”, “same protocol as described in the antiviral assay (Test A) except that uninfected cells were used.” for “onset of AIDS or ARC symptoms.”

Compound	ring closure, yield of all isomers [1]	inhibition at 2 µM (HIV-IIIb)	CC50 at 5 days [2]
COC(=O)[C@@H]1Cc2cc(F)cc(c2)/C=C\Cc2c(c3ccccc3n2C(=O)OC(C)(C)C)CC(=O)N1	49.9%	–	–
COc1ccc(N(C)C(=O)[C@@H]2Cc3cccc(c3)CCS(=O)(=O)Cc3[nH]c4ccc(O)cc4c3CC(=O)N2)cc1 [Example 9]	–	0.7%	> 53 µM
COc1ccc(N(C)C(=O)[C@@H]2Cc3cccc(c3)CCSCc3[nH]c4ccc(F)cc4c3CC(=O)N2)cc1 [Example 7]	–	26.3%	> 53 µM
COc1ccc(N(C)C(=O)[C@@H]2Cc3cccc(c3)S(=O)(=O)Cc3[nH]c4ccccc4c3CC(=O)N2)cc1 [Example 19, (9S)—N-(4-methoxyphenyl)-N-methyl-11-oxo-8,9,10,11,12,17-hexahydro-1H-7,3-(metheno)[1,7]thiazacyclotetradecino[3,4-b]indole-9-carboxamide 2,2-dioxide]	–	80.3%	> 53 µM
COc1ccc(N(C)C(=O)[C@@H]2Cc3cccc(c3)C/C=C\c3[nH]c4ccccc4c3CC(=O)N2)cc1 [Example 13]	–	99%	> 53 µM
COc1ccc(N(C)C(=O)[C@@H]2Cc3cccc(c3)C/C=C/c3[nH]c4ccc(F)cc4c3CC(=O)N2)cc1 [Example 12]	–	85.5%	31.8 µM
COc1ccc(N(C)C(=O)[C@@H]2Cc3cccc(c3)CCc3[nH]c4ccccc4c3CC(=O)N2)cc1 [Example 3]	–	99.2%	> 53 µM
CN(C(=O)[C@@H]1Cc2cccc(c2)CCc2[nH]c3ccc(=O)[nH]c3c2CC(=O)N1)c1ccc(Cl)cc1 [Example 29, (14S)—N-(4-chlorophenyl)-N-methyl-2,16-dioxo-1,2,5,6,7,13,14,15,16,17-decahydro-12,8-(metheno)pyrido[2′,3′:4,5]pyrrolo[3,2-d]azacyclotetradecine-14-carboxamide]	–	87.6%	> 53 µM
COc1ccc(N(C)C(=O)[C@@H]2Cc3cccc(c3)/C=C\c3[nH]c4ccccc4c3CC(=O)N2)cc1 [Example 17, (4S,11Z)—N-(4-methoxyphenyl)-N-methyl-2-oxo-1,2,3,4,5,13-hexahydro-6,10-(metheno)azacyclotetradecino[5,4-b]indole-4-carboxamide]	–	4.7%	> 53 µM
COc1ccc(N(C)C(=O)[C@@H]2Cc3cccc(c3)CCS(=O)(=O)Cc3[nH]c4ccc(F)cc4c3CC(=O)N2)cc1 [Example 10]	–	1.8%	> 53 µM
COc1ccc(N(C)C(=O)[C@@H]2Cc3cccc(c3)CCSCc3[nH]c4ccc(O)cc4c3CC(=O)N2)cc1 [Example 6]	–	94.3%	49.2 µM
COc1ccc(N(C)C(=O)[C@@H]2Cc3cccc(c3)CCS(=O)(=O)Cc3[nH]c4ccccc4c3CC(=O)N2)cc1 [Example 8, (11S)—N-(4-methoxyphenyl)-N-methyl-13-oxo-3,4,10,11,12,13,14,19-octahydro-1H-9,5-(metheno)[1,7]thiazacyclohexadecino[3,4-b]indole-11-carboxamide 2,2-dioxide]	–	0.6%	> 53 µM
CN(C(=O)N1Cc2cc(F)cc(c2)CCCc2[nH]c3ccccc3c2CC(=O)N1)c1ccc(Cl)cc1 [Example 31, N-(4-chlorophenyl)-8-fluoro-N-methyl-2-oxo-2,3,11,12,13,14-hexahydro-1H-6,10-(metheno)[1,2]diazacyclopentadecino[6,5-b]indole-4(5H)-carboxamide]	–	2.4%	21.7 µM
CN(C(=O)[C@@H]1Cc2cccc(c2)CCCc2[nH]c3ccc(=O)[nH]c3c2CC(=O)N1)c1ccc(Cl)cc1 [Example 30, (15S)—N-(4-chlorophenyl)-N-methyl-2,17-dioxo-1,5,6,7,8,14,15,16,17,18-decahydro-2H-13,9-(metheno)pyrido[2′,3′:4,5]pyrrolo[3,2-d]azacyclopentadecine-15-carboxamide]	–	0%	24.4 µM
COc1ccc2[nH]c3c(c2n1)CC(=O)N[C@H](C(=O)N(C)c1ccc(Cl)cc1)Cc1cccc(c1)CC3 [Example 28, (14S)—N-(4-chlorophenyl)-2-methoxy-N-methyl-16-oxo-5,6,7,13,14,15,16,17-octahydro-12,8-(metheno)pyrido[2′,3′:4,5]pyrrolo[3,2-d]azacyclotetradecine-14-carboxamide]	–	63.9%	18.3 µM
COc1ccc(N(C)C(=O)[C@@H]2Cc3cc(F)cc(c3)CCCc3[nH]c4ccccc4c3CC(=O)N2)cc1 [Example 23K, (4S)-8-fluoro-N-(4-methoxyphenyl)-N-methyl-2-oxo-2,3,4,5,11,12,13,14-octahydro-1H-6,10-(metheno)azacyclopentadecino[5,4-b]indole-4-carboxamide]	–	94%	> 50.3 µM
COc1ccc(N(C)C(=O)[C@@H]2Cc3cccc(c3)CCCc3[nH]c4ccc(O)cc4c3CC(=O)N2)cc1 [Example 2]	–	102%	> 46.4 µM
COc1ccc(N(C)C(=O)[C@@H]2Cc3cccc(c3)C/C=C\c3[nH]c4ccc(F)cc4c3CC(=O)N2)cc1 [Example 14]	–	95.6%	44.3 µM
COc1ccc(N(C)C(=O)[C@@H]2Cc3cccc(c3)CC=Cc3[nH]c4ccccc4c3CC(=O)N2)cc1 (stereo in doubt) [Example 11, (4S,12Z)—N-(4-methoxyphenyl)-N-methyl-2-oxo-2,3,4,5,11,14-hexahydro-1H-6,10-(metheno)azacyclopentadecino[5,4-b]indole-4-carboxamide]	–	102%	23.9 µM
COc1ccc(N(C)C(=O)[C@@H]2Cc3cccc(c3)CS(=O)(=O)c3[nH]c4ccccc4c3CC(=O)N2)cc1 [Example 21, (9S)—N-(4-methoxyphenyl)-N-methyl-11-oxo-8,9,10,11,12,17-hexahydro-7,3-(metheno)[1,6]thiazacyclotetradecino[2,3-b]indole-9(2H)-carboxamide 1,1-dioxide]	–	11.8%	> 53 µM
COc1ccc(N(C)C(=O)[C@@H]2Cc3cc(F)cc(c3)C/C=C/c3[nH]c4ccccc4c3CC(=O)N2)cc1 [Example 27, (4S,12E)-8-fluoro-N-(4-methoxyphenyl)-N-methyl-2-oxo-2,3,4,5,11,14-hexahydro-1H-6,10-(metheno)azacyclopentadecino[5,4-b]indole-4-carboxamide]	–	92.5%	18.9 µM
COc1ccc(N(C)C(=O)[C@@H]2Cc3cccc(c3)CCCCc3[nH]c4ccccc4c3CC(=O)N2)cc1 [Example 4]	–	79.6%	> 48.7 µM
COc1ccc(N(C)C(=O)[C@@H]2Cc3cccc(c3)/C=C/Cc3[nH]c4ccccc4c3CC(=O)N2)cc1 [Example 22, (4S,11E)-N-(4-methoxyphenyl)-N-methyl-2-oxo-2,3,4,5,13,14-hexahydro-1H-6,10-(metheno)azacyclopentadecino[5,4-b]indole-4-carboxamide]	–	64.5%	> 52.6 µM
COc1ccc(N(C)C(=O)[C@@H]2Cc3cccc(c3)CS(=O)(=O)Cc3[nH]c4ccccc4c3CC(=O)N2)cc1 [Example 16, (10S)—N-(4-methoxyphenyl)-N-methyl-12-oxo-9,10,11,12,13,18-hexahydro-1H-8,4-(metheno)[1,7]thiazacyclopentadecino[3,4-b]indole-10(3H)-carboxamide 2,2-dioxide]	–	67.8%	> 53 µM
CN(C(=O)[C@@H]1Cc2cc(F)cc(c2)CCCc2[nH]c3ccccc3c2CC(=O)N1)c1ccc(Cl)cc1 [Example 24, (4S)—N-(4-chlorophenyl)-8-fluoro-N-methyl-2-oxo-2,3,4,5,11,12,13,14-octahydro-1H-6,10-(metheno)azacyclopentadecino[5,4-b]indole-4-carboxamide]	–	100%	47.1 µM
CN(Cc1ccccc1)C(=O)[C@@H]1Cc2cc(F)cc(c2)CCCc2[nH]c3ccccc3c2CC(=O)N1 [Example 25, (4S)—N-benzyl-8-fluoro-N-methyl-2-oxo-2,3,4,5,11,12,13,14-octahydro-1H-6,10-(metheno)azacyclopentadecino[5,4-b]indole-4-carboxamide]	–	84.9%	52.3 µM
COc1ccc(N(C)C(=O)[C@@H]2Cc3cc(F)cc(c3)/C=C\Cc3[nH]c4ccccc4c3CC(=O)N2)cc1 [Example 26, (4S,11Z)-8-fluoro-N-(4-methoxyphenyl)-N-methyl-2-oxo-2,3,4,5,13,14-hexahydro-1H-6,10-(metheno)azacyclopentadecino[5,4-b]indole-4-carboxamide]	–	79.9%	34.8 µM
